In patent US8563555B2, “Pharmaceutical compositions containing a crystalline form of posaconazole” (Sandoz AG, priority 2008, dated 2013):
Values after ≈ are worked out from the molar mass of the structure shown. Values joined by “and” are separate entries in the source; they are usually repeats but may differ in a detail not shown here. Equal values may be shown once. One block for each molecule: values may come before it.

How the values were obtained:
[1] = Stability of an aqueous suspension of form Y; format: physicochemical; settings: 120 mg in 3 ml water, room temperature, 4 days
Experimental: 120 mg form Y were suspended in 3 ml water and the suspension was stirred at room temperature.

[2] = Specific surface measurement, BET method; format: physicochemical; settings: for Specific Surface: nitrogen at 77° K, non-micronized
Experimental: Specific surface measurement was performed with the equipment NOVA 2000 as commercially available from Quantachrome Instruments using the BET method and Nitrogen as the absorbed gas at 77° K (i.e. −196.15° C.) as described e.g. by Medema J, Campagne A.: A Simple Method to Determine Cumulative Surface-Area Distributions of Porous Solids; Journal of Catalysis, Volume 8, Issue 2, pp. 120, 1967.

[3] = Equilibrium solubility method in water; format: physicochemical
Experimental: The solubility of form Y was determined by the equilibrium solubility method, which employed a saturated solution of form Y, obtained by stirring 250 mg form Y in 6 ml water over night. The sample was filtered through a 0.45 μm membrane filter and the concentration of form Y in the filtrate was measured using a Perkin Elmer Lambda 35 UV/VIS spectrophotometer (λ=260 nm).

[4] = Solid state stability of form Y (HPLC assay, polymorphic form); format: physicochemical
Experimental: HPLC assay was performed by applying the following conditions: • Column: ZORBAX XDB-C18 Rapid Resolution HT, 1.8 μm, 50×4.6 mm (Agilent Technologies) • Eluent A: Dilute 2 ml of acetic acid (99-100%) with water and fill up to 1000 ml with water. Adjust pH to 6.5 with 2.5% ammonia. • Eluent B: water/acetonitrile=50/50 (v/v) • Flow rate: 0.8 ml/min • Temperature: 40° C. • Detection: UV at 260 nm • Gradient:
The solid state stability of form Y was determined by storing approximately 1.0 g of the material in a glass bottle at a) 60° C./100% Relative Humidity (RH), open exposure, for 24 hours and b) at 140° C., closed, for 3 days.
The material was assayed by HPLC for final content and degradation products.

[5] = Moisture sorption isotherm; format: physicochemical; settings: 0-95% RH, 25° C.
Experimental: The moisture sorption isotherm was recorded with a SPS-11 moisture sorption analyzer (MD Mess-technik, Ulm, D). The measurement cycle was started at 0% relative humidity (RH), increased in 10% steps up to 90% RH and in a 5% step up to 95% RH. The equilibrium condition for each step was set to a constant mass ±0.003% over 49 min. The temperature was 25±0.1° C.

[6] = Particle size distribution (Malvern, laser diffraction) in suspension; format: physicochemical; settings: for Mean particle size (D4,3-value) / Median particle size (d (0.5)-value): non-micronized form, in suspension, after 5 min ultrasonic treatment
Experimental: Crystalline form Y in a non-micronized form as obtained by Example 1 was used to prepare 25 ml of a suspension as follows:
The suspension was prepared analogously to the method described in Example 6 up to and including the addition of glycerol and liquid glucose. Subsequently, titanium oxide was added under mixing with a suitable homogenizer, followed by the addition of the cherry flavour and of the remaining portion of 56% of the final amount of purified water under mixing until a uniform suspension was obtained.
25 ml of a similar suspension, but without cherry flavour and using 12.148 g of purified water, was prepared analoguously using non-micronized crystalline form I of posaconazole.
The particle size distribution (Malvern) was measured according to the USP <429> and EP 2.9.31. based on the diffraction of laser by particles using a Mastersizer 2000S liquid dispersion system. The particle size measurement was started after ultrasonic treatment of the sample for 5 min.

[7] = Dissolution from suspension, USP <711> apparatus II; format: physicochemical; settings: suspension of Example 7, paddle 25 rpm, 0.3% SLS aqueous solution
Experimental: Non-micronized form Y and non-micronized form I were incorporated into formulations having compositions and being prepared according to Example 7.
Dissolution of Form Y and Form I from those formulations was tested according to USP 32 (2009) method <711> (USP apparatus II (Paddle); 25 rpm; dissolution medium: 0.3% SLS aqueous solution). Posaconzole concentrations were determined with an online photometer (UV absorption at 260 nm).

[8] = Stability of form Y within a pharmaceutical formulation (XRPD); format: physicochemical; settings: suspension stored at room temperature for 7 weeks
Experimental: 25 ml of a suspension containing form Y were prepared as follows:
40% of the final amount of Polysorbat 80 and 40% of the final amount of simethicon were mixed and dissolved and/or dispersed in about 12% of the final amount of purified water and homogenized with Ultra Turrax (30 seconds; 27,000 rpm). Subsequently, 1 g of form Y of posaconazole were suspended or dispersed in this mixture under homogenization by Ultra Turrax (27,000 rpm, 2 minutes). The remaining 60% of Polysorbat 80 and of simethicon and 32% of the final amount of the purified water were added and mixed followed by the addition of sodium benzoate, sodium citrate dehydrate and citric acid monohydrate. After further mixing, xanthan gum was added to the mixture under stirring, followed by a 30 minutes phase of hydratization without mixing. Subsequently, glycerol and liquid glucose and of the remaining portion of 56% of the final amount of purified water were added under mixing until a uniform suspension was obtained.
This suspension was stored at room temperature for 7 weeks. A sample of approximately 1 g of the suspension was dried under vacuum over night at room temperature. […]

[9] = cited from earlier work
[10] = listed as crystalline form Y of posaconazole
[11] = 60° C./100% RH, open exposure, 24 hours

- fold larger specific area compared to crystalline form I [2]: about 2.4 fold
- Specific Surface ([2]; listed as Crystalline Form Y of posaconazole): 3.6 m^2/g and 3.7 m^2/g
- Specific Surface [2, 10]: about 4±1 m^2/g
- water solubility of form Y relative to form I (times higher) [3]: about two
- solubility ([3]; thermodynamic from solid, saturated solution stirred over night, 0.45 μm filtrate, UV 260 nm): 1.5 µg/mL (≈ 2.14 µM)
- HPLC assay (% initial) [4, 11]: 99.9%
- degradation [4, 11]: No significant degradation observed
- HPLC assay (% initial) ([4]; 140° C., closed, 3 days): 99.9%
- degradation ([4]; 140° C., closed, 3 days): No significant degradation observed
- water uptake [5]: ≤ 0.4%
- fold smaller mean particle size compared to non-micronized form I ([6]; non-micronized): about 4 fold
- fold smaller median particle size compared to non-micronized form I ([6]; non-micronized): about 5 fold
- Mean particle size (D4,3-value) [6]: 9.9 μm
- Median particle size (d (0.5)-value) [6]: 6.0 μm
- Mean particle size (D4,3-value) [6, 10]: about 10±2 μm
- Median particle size (d (0.5)-value) [6, 10]: about 6±2 μm
- dissolution compared to non-micronized form I [7]: clearly faster dissolution
Compound: CC[C@@H]([C@H](C)O)n1ncn(-c2ccc(N3CCN(c4ccc(OC[C@@H]5CO[C@@](Cn6cncn6)(c6ccc(F)cc6F)C5)cc4)CC3)cc2)c1=O [Crystalline Form Y, posaconazole]
- physicochemical properties of the solid after stirring in water [1]: the same as the physicochemical properties of form Y obtained in Example 1
- polymorphic conversion ([4]; 24 hours at 100% RH, 60° C.): not converted into another polymorphic form
- polymorphic conversion in suspension (XRPD) [8]: no conversion to another polymorphic form had occurred

- Specific Surface ([2]; listed as Crystalline Form I of posaconazole): 1.5 m^2/g and 1.6 m^2/g
- Mean particle size (D4,3-value) [6]: 35.1 μm
- Median particle size (d (0.5)-value) [6]: 31.3 μm
Compound: CC[C@@H]([C@H](C)O)n1ncn(-c2ccc(N3CCN(c4ccc(OC[C@@H]5CO[C@@](Cn6cncn6)(c6ccc(F)cc6F)C5)cc4)CC3)cc2)c1=O [Crystalline Form I, posaconazole]

Compound: CC[C@@H]([C@H](C)O)n1ncn(-c2ccc(N3CCN(c4ccc(OC[C@@H]5CO[C@@](Cn6cncn6)(c6ccc(F)cc6F)C5)cc4)CC3)cc2)c1=O [posaconazole, 2,5-anhydro-1,3,4-trideoxy-2-C-(2,4-difluorophenyl)-4-[[4-[4-[4-[1-[(1S,2S)-1-ethyl-2-hydroxypropyl]-1,5-dihydro-5-oxo-4H-1,2,4-triazol-4-yl]phenyl]-1-piperazinyl]phenoxy]methyl]-1-(1H-1,2,4-triazol-1-yl)-D-threopentitol]
- log P [9]: > 3
